Source: patent publication US20180303853A1, “COMPOSITIONS AND METHODS FOR TREATING BACTERIAL INFECTIONS USING CEFTAROLINE” (priority 2017, published 2018)
Read-outs that look alike come from different tables or passages of the source. Blank lines part the entries; values can stand above or below the molecule they belong to.

Columns and labels:
[1] = test system: community-acquired pneumonia (CAP); experiment: Example 5 Phase 3 study, ceftaroline vs ceftriaxone with adjunctive clarithromycin in CAP, efficacy; assay type: in vivo, human
Excerpt: (§1) The secondary objective of the study was to evaluate the following: the clinical response at end-of-therapy (EOT); the microbiological favorable outcome rate at TOC; the overall (clinical and radiographic) success rate at TOC; the clinical and microbiological response by pathogen at TOC; clinical relapse at late follow-up (LFU); microbiological reinfection/recurrence at LFU; and safety.
The primary efficacy outcome measures were the per-subject clinical cure rate at TOC in the CE and MITTE Populations. Subjects were considered clinically cured at TOC if they had total resolution of all signs and symptoms of the baseline infection, or improvement of the infection such that no further antimicrobial therapy was necessary.
(§2) Non-inferiority was concluded if the lower limit of the 95% CI was higher than −10%.

[2] = test system: MDRSP (multidrug-resistant); assay type: in vivo, Streptococcus pneumoniae; settings: CABP, ME patients
Procedure: (§3) In both treatment groups of CABP Study 1, two doses of oral clarithromycin (500 mg q12 h), were administered as adjunctive therapy starting on Study Day 1. No adjunctive macrolide therapy was used in CABP Study 2. Patients with new or progressive pulmonary infiltrate(s) on chest radiography and clinical signs and symptoms consistent with CABP with the need for hospitalization and IV therapy were enrolled in the studies. Treatment duration was 5 to 7 days. A switch to oral therapy was not allowed. The Modified Intent-to-Treat Efficacy (MITTE) population, included all patients who received any amount of study drug according to their randomized, treatment group and were in PORT (Pneumonia Outcomes Research Team) Risk Class III or IV.
(§4) The primary efficacy endpoint was the clinical response at the Test of Cure (TOC) visit in the co-primary Ce and MITTE populations (Table 4).

[3] = test system: Community-Acquired Bacterial Pneumonia (CABP); experiment: Two Phase 3 studies in CABP, clinical cure at TOC (single and integrated/combined); assay type: in vivo, human; settings: for Combined clinical cure rate: combined data of the two CAP studies, TOC
Procedure: as §3, §4

E. coli = experiment: Example 5 CAP study, outcome by baseline pathogen; assay type: in vivo
Excerpt: (§5) Per-pathogen clinical cure rate and favorable microbiological outcome rate at TOC in the mMITTE and ME Populations;

H. parainfluenzae [4] = experiment: Example 5 CAP study, outcome by baseline pathogen; assay type: in vivo
Excerpt: as §5

H. influenzae [5] = experiment: Example 5 CAP study, outcome by baseline pathogen; assay type: in vivo
Excerpt: as §5

S. pneumoniae [6] = experiment: Example 5 CAP study, outcome by baseline pathogen; assay type: in vivo
Excerpt: as §5

S. aureus [7] = experiment: Example 5 CAP study, outcome by baseline pathogen; assay type: in vivo
Excerpt: as §5

[8] = test system: community-acquired pneumonia (CAP); experiment: Example 4 Phase 3 study, ceftaroline vs ceftriaxone in CAP, efficacy; assay type: in vivo, human
Excerpt: as §1, with “objectives” for “objective”, “were” for “was”, “following:” for “following: the”
The following criteria were used for evaluation: The primary efficacy outcome measures were the pet-subject clinical cure rate at test-of-cure (TOC) in the CE and MITTE Populations Subjects were considered clinically cured at TOC if they had total resolution of all signs and symptoms of the baseline infection, or improvement of the infection such that no further antimicrobial therapy was necessary.
as §2

Streptococcus pneumoniae = experiment: Integrated Phase 3 CABP studies, clinical cure by infecting pathogen; assay type: in vivo; settings: ME patients
Procedure: as §3, §4

Staphylococcus aureus = experiment: as above; assay type: in vivo; settings: ME patients
Procedure: as §3, §4

Haemophilus influenzae = experiment: as above; assay type: in vivo; settings: ME patients
Procedure: as §3, §4

Klebsiella pneumoniae = experiment: as above; assay type: in vivo; settings: ME patients
Procedure: as §3, §4

Escherichia coli = experiment: as above; assay type: in vivo; settings: ME patients
Procedure: as §3, §4

[9] = human, in vivo
[10] = test system: MSSA (methicillin-susceptible); experiment: Integrated Phase 3 CABP studies, clinical cure by infecting pathogen; assay type: in vivo, Staphylococcus aureus; settings: ME patients
Procedure: as §3, §4

MDRSP [11] = experiment: Example 5 CAP study, outcome by baseline pathogen; assay type: in vivo, S. pneumoniae
Excerpt: as §5

H. parainfluenzae [12] = experiment: Example 4 CAP study, outcome by baseline pathogen; assay type: in vivo
Excerpt: as §5

H. influenzae [13] = experiment: Example 4 CAP study, outcome by baseline pathogen; assay type: in vivo
Excerpt: as §5

S. pneumoniae [14] = experiment: Example 4 CAP study, outcome by baseline pathogen; assay type: in vivo
Excerpt: as §5

K. pneumoniae = experiment: Example 4 CAP study, outcome by baseline pathogen; assay type: in vivo
Excerpt: as §5

S. aureus [15] = experiment: Example 4 CAP study, outcome by baseline pathogen; assay type: in vivo
Excerpt: as §5

[16] = Example 4 CAP study, safety
MDRSP [17] = experiment: Example 4 CAP study, outcome by baseline pathogen; assay type: in vivo, S. pneumoniae
Excerpt: as §5

[18] = human, in vivo; remark: listed apart in the source
[19] = Example 5 CAP study, safety
[20] = test system: CYP1A2, CYP2B6, CYP2C8, CYP2C9, CYP2CI9, or CYP3A4/5; experiment: CYP induction in human hepatocytes; assay type: in vitro ADME

Compound: CO/N=C(\C(=O)N[C@@H]1C(=O)N2C(C(=O)O)=C(CSc3nc(=O)c(=O)[nH]n3C)CS[C@H]12)c1csc(N)n1 [Ceftriaxone, ceftriaxone, reference compound]
Clinical Success at the TOC Visit ([1]; Example 5, CE population): 183 (78.2) %
Favorable Microbiological Outcome at the TOC Visit ([1]; Example 5, ME population): 56 (78.9) %
Clinical Success at the TOC Visit ([1]; Example 5, MITTE population): 233 (77.7) %
Favorable Microbiological Outcome at the TOC Visit ([1]; Example 5, mMITTE population): 63 (78.8) %
Clinical cure rate by infecting pathogen [2]: 1/4 (25.0%)
Clinical cure rate at TOC ([3]; CABP Study 1, CE population): 183/234 (78.2%)
Clinical cure rate at TOC ([3]; CABP Study 1, MITTE population): 233/300 (77.7%)
Clinical cure rate at TOC ([3]; CABP Study 2, CE population): 166/215 (77.2%)
Clinical cure rate at TOC ([3]; CABP Study 2, MITTE population): 206/273 (75.5%)
Clinical cure rate at TOC ([3]; Integrated Studies, CE population, 5 to 7 days of therapy): 349/449 (77.7%)
Clinical cure rate at TOC ([3]; Integrated Studies, MITTE population): 439/573 (76.6%)
Combined clinical cure rate ([3]; CE): 349/449 (77.7) %
Combined clinical cure rate ([3]; ME): 111/147 (75.5) %
Combined clinical cure rate ([3]; MITTE): 439/573 (76.6) %
Combined clinical cure rate ([3]; mMITTE): 126/168 (75.0) %
Favorable Microbiological Outcome at TOC by Baseline Pathogen (E. coli; Example 5, ME): 6/6 (100.0)
Clinical Cure Rate at the TOC Visit by Baseline Pathogen (E. coli; Example 5, ME Population): 5/6 (83.3)
Favorable Microbiological Outcome at TOC by Baseline Pathogen (H. parainfluenzae [4]; Example 5, ME): 9/10 (90.0)
Clinical Cure Rate at the TOC Visit by Baseline Pathogen (H. parainfluenzae [4]; Example 5, ME Population): 9/10 (90.0)
Favorable Microbiological Outcome at TOC by Baseline Pathogen (H. influenzae [5]; Example 5, ME): 6/8 (75.0)
Clinical Cure Rate at the TOC Visit by Baseline Pathogen (H. influenzae [5]; Example 5, ME Population): 6/8 (75.0)
Favorable Microbiological Outcome at TOC by Baseline Pathogen (S. pneumoniae [6]; Example 5, ME): 18/27 (66.7)
Clinical Cure Rate at the TOC Visit by Baseline Pathogen (S. pneumoniae [6]; Example 5, ME Population): 18/27 (66.7)
Favorable Microbiological Outcome at TOC by Baseline Pathogen (S. aureus [7]; Example 5, ME): 8/12 (66.7)
Clinical Cure Rate at the TOC Visit by Baseline Pathogen (S. aureus [7]; Example 5, ME Population): 7/12 (58.3)
Clinical Success at the TOC Visit ([8]; Example 4, CE population): 166 (77.2) %
Favorable Microbiological Outcome at the TOC Visit ([8]; Example 4, ME population): 63 (82.9) %
Clinical Success at the TOC Visit ([8]; Example 4, MITTE population): 206 (75.5) %
Clinical cure rate by infecting pathogen (Streptococcus pneumoniae): 41/59 (69.5%)
Clinical cure rate by infecting pathogen (Staphylococcus aureus): 15/27 (55.6%)
Clinical cure rate by infecting pathogen (Haemophilus influenzae): 17/20 (85.0%)
Clinical cure rate by infecting pathogen (Klebsiella pneumoniae): 10/12 (83.3%)
Clinical cure rate by infecting pathogen (Escherichia coli): 9/12 (75.0%)
Adverse event: Constipation [9]: 5 (1.6) %
Adverse event: Hypertension [9]: 8 (2.6) %
TEAEs assessed as drug related by the Investigators [9]: 12.7%
study-drug-related TEAE: headache [9]: 0.0%
study-drug-related TEAE: hepatic enzyme increased [9]: 1.0%
study-drug-related TEAE: sinus bradychardia [9]: 1.0%
Clinical cure rate by infecting pathogen [10]: 14/25 (56.0%)
Favorable Microbiological Outcome at TOC by Baseline Pathogen (MDRSP [11]; Example 5, ME): 0
Clinical Cure Rate at the TOC Visit by Baseline Pathogen (MDRSP [11]; Example 5, ME Population): 0
Favorable Microbiological Outcome at TOC by Baseline Pathogen (H. parainfluenzae [12]; Example 4, ME): 7/7 (100.0)
Clinical Cure Rate at the TOC Visit by Baseline Pathogen (H. parainfluenzae [12]; Example 4, ME Population): 6/7 (85.7)
Favorable Microbiological Outcome at TOC by Baseline Pathogen (H. influenzae [13]; Example 4, ME): 11/12 (91.7)
Clinical Cure Rate at the TOC Visit by Baseline Pathogen (H. influenzae [13]; Example 4, ME Population): 11/12 (91.7)
Favorable Microbiological Outcome at TOC by Baseline Pathogen (S. pneumoniae [14]; Example 4, ME): 25/32 (78.1)
Clinical Cure Rate at the TOC Visit by Baseline Pathogen (S. pneumoniae [14]; Example 4, ME Population): 23/32 (71.9)
Favorable Microbiological Outcome at TOC by Baseline Pathogen (K. pneumoniae; Example 4, ME): 7/8 (87.5)
Clinical Cure Rate at the TOC Visit by Baseline Pathogen (K. pneumoniae; Example 4, ME Population): 7/8 (87.5)
Favorable Microbiological Outcome at TOC by Baseline Pathogen (S. aureus [15]; Example 4, ME): 11/15 (73.3)
Clinical Cure Rate at the TOC Visit by Baseline Pathogen (S. aureus [15]; Example 4, ME Population): 8/15 (53.3)
hemolytic anemia [16]: No evidence of hemolytic anemia
incidence of deaths [16]: 2.0%
Favorable Microbiological Outcome at TOC by Baseline Pathogen (MDRSP [17]; Example 4, ME): 2/4 (50.0)
Clinical Cure Rate at the TOC Visit by Baseline Pathogen (MDRSP [17]; Example 4, ME Population): 1/4 (25.0)
Adverse event: COPD [18]: 5 (1.6) %
Adverse event: Diarrhea [18]: 9 (2.9) %
Adverse event: Head ache [18]: 5 (1.6) %
Adverse event: Hypertension [18]: 8 (2.6) %
Adverse event: Pleural effusion [18]: 7 (2.3) %
Adverse event: Pneumonia [18]: 4 (1.3) %
study-drug-related TEAE: alanine aminotransferase increased [18]: 1.0%
study-drug-related TEAE: blood creatinine phosphokinase increased [18]: 0.7%
study-drug-related TEAE: heartache [18]: 1.0%
subjects with any study-drug-related TEAEs [18]: 13.7%
hemolytic anemia [19]: No evidence of hemolytic anemia
percentage of deaths [19]: 2.6%

induction of CYP isoenzymes [20]: not inducers
Compound: CCO/N=C(\C(=O)N[C@H](C(=O)[O-])[C@@H]1NC(C(=O)[O-])=C(Sc2nc(-c3cc[n+](C)cc3)cs2)CS1)c1nsc(N)n1.[H+] [ceftaroline M-1]
